Measurements published in patent US8618107B2 (Gilead Connecticut, Inc., priority 2010, dated 2013).

Key:
[1] = test system: CD86 surface expression on CD19+/7AAD- mouse splenocytes stimulated with IgM; test: CD86 Inhibition Assay; format: cell-based; details: Splenocyte; total mouse splenocytes (Balb/c), IgM stimulation 24 hr
Procedure: Following the 24 hr incubation, cells are transferred to conical bottom clear 96-well plates and pelleted by centrifugation at 1200×g×5 min. […] Cells are sorted on a BD FACSCalibur and gated on the CD19^+/7AAD^− population. The levels of CD86 surface expression on the gated population is measured versus test compound concentration.

Btk = Btk (Homo sapiens (Human), UniProt Q06187); test: standard biochemical Btk Kinase Assay (Example 901); details: Table 2
Sequence of Btk (Q06187 whole entry): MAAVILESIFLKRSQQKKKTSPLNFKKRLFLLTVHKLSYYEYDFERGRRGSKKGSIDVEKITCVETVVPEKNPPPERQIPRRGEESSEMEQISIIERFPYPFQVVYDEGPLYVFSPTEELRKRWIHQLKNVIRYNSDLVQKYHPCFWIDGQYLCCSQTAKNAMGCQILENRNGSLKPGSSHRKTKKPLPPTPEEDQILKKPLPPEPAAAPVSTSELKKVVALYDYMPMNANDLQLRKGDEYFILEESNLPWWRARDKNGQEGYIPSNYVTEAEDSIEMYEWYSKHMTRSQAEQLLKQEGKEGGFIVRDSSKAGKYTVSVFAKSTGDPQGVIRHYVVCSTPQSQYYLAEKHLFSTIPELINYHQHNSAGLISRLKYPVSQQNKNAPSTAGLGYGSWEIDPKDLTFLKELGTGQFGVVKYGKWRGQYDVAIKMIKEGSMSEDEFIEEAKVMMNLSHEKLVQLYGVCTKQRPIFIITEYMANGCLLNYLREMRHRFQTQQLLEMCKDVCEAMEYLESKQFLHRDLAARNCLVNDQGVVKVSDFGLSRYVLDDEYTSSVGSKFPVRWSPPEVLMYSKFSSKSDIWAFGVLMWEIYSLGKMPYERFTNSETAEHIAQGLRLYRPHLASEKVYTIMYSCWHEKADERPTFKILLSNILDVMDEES
Source text: Determination of IC50 values can be accomplished using conventional techniques known in the art. In general, an IC50 can be determined by measuring the activity of a given enzyme in the presence of a range of concentrations of the inhibitor under study. The experimentally obtained values of enzyme activity then are plotted against the inhibitor concentrations used. […] Analogously, other inhibitory concentrations can be defined through appropriate determinations of activity.

SMILES | EC50 [1] [µM] | IC50 (Btk) [µM]
Cn1cc(-c2cccc(N3CCn4c(cc5c4CCCC5)C3=O)c2CO)nc(Nc2cnn(C3CC3)c2)c1=O [Example 114, 2-(3-(6-(1-cyclopropyl-1H-pyrazol-4-ylamino)-4-methyl-5-oxo-4,5-dihydropyrazin-2-yl)-2-(hydroxymethyl)phenyl)-3,4,6,7,8,9-hexahydropyrazino[1,2-a]indol-1(2H)-one] | 0.188 | 
Cn1cc(-c2cc(F)cc(N3CCc4c(sc5c4CCCC5)C3=O)c2CO)cc(Nc2ccncn2)c1=O [Example 115, 5-[5-Fluoro-2-(hydroxymethyl)-3-[1-methyl-6-oxo-5-(pyrimidin-4-ylamino)-1,6-dihydropyridin-3-yl]phenyl]-8-thia-5-azatricyclo[7.4.0.02,7]trideca-1(9),2(7)-dien-6-one] | 0.078 | 
Cn1cc(-c2cc(F)cc(N3CCn4c(cc5c4CCCC5)C3=O)c2CO)cc(Nc2ccc(N3CCN(C4COC4)CC3)cn2)c1=O [Example 210, 2-(5-fluoro-2-(hydroxymethyl)-3-(1-methyl-5-(5-(4-(oxetan-3-yl)piperazin-1-yl)pyridin-2-ylamino)-6-oxo-1,6-dihydropyridin-3-yl)phenyl)-3,4,6,7,8,9-hexahydropyrazino[1,2-a]indol-1(2H)-one] | 0.01 | 
Cn1cc(-c2cc(F)cc(N3CCc4c(sc5c4CCCC5)C3=O)c2CO)cc(Nc2ccc(N3CCN(C4COC4)CC3)cn2)c1=O [Example 211, 5-[5-Fluoro-2-(hydroxymethyl)-3-[1-methyl-5-({5-[4-(oxetan-3-yl)piperazin-1-yl]pyridin-2-yl}amino)-6-oxo-1,6-dihydropyridin-3-yl]phenyl]-8-thia-5-azatricyclo[7.4.0.0^2,7]trideca-1(9),2(7)-dien-6-one] | 0.009 | 
CN1CCN(c2ccc(Nc3cc(-c4cc(F)cc(N5CCc6c(sc7c6CCCC7)C5=O)c4CO)cn(C)c3=O)nc2)CC1 [Example 212, 5-[5-Fluoro-2-(hydroxymethyl)-3-(1-methyl-5-{[5-(4-methylpiperazin-1-yl)pyridine-2-yl]amino}-6-oxo-1,6-dihydropyridin-3-yl)phenyl]-8-thia-5-azatricyclo[7.4.0.0^2,7]trideca-1(9),2(7)-dien-6-one] | 0.009 | 
CC(C)N(C)Cc1ccc(Nc2cc(-c3cc(F)cc(N4CCc5c(sc6c5CCCC6)C4=O)c3CO)cn(C)c2=O)nc1 [Example 277, 5-[5-Fluoro-2-(hydroxymethyl)-3-{1-methyl-5-[(5-{[methyl(propan-2-yl)amino]methyl}pyridine-2-yl)amino]-6-oxo-1,6-dihydropyridin-3-yl}phenyl]-8-thia-5-azatricyclo[7.4.0.0^2,7]trideca-1(9),2(7)-dien-6-one] | 0.028 | 
Cn1cc(-c2cc(F)cc(N3CCc4c(sc5c4CCCC5)C3=O)c2CO)cc(Nc2ccc(N3CCOCC3)cn2)c1=O [Example 289, 2-(5-Fluoro-2-(hydroxymethyl)-3-(1-methyl-5-(5-morpholinopyridin-2-ylamino)-6-oxo-1,6-dihydropyridin-3-yl)phenyl)-3,4,5,6,7,8-hexahydrobenzothieno[2,3-c]pyridin-1(2H)-one] | 0.01 | 
CN1CCC[C@H]1c1ccc(Nc2cc(-c3cc(F)cc(N4CCn5c(cc6c5CC(C)(C)C6)C4=O)c3CO)cn(C)c2=O)nc1 [Example 290, 10-[5-Fluoro-2-(hydroxymethyl)-3-[1-methyl-5-({5-[(2S)-1-methylpyrrolidin-2-yl]pyridine-2-yl}amino)-6-oxo-1,6-dihydropyridin-3-yl]phenyl]-4,4-dimethyl-1,10-diazatricyclo[6.4.0.0^2,6]dodeca-2(6),7-dien-9-one] | 0.01 | 
CN(C)CCOc1ccc(Nc2cc(-c3cc(F)cc(N4CCc5c(sc6c5CC(C)(C)C6)C4=O)c3CO)cn(C)c2=O)nc1 [Example 296, 10-{3-[5-({5-[2-(Dimethylamino)ethoxy]pyridin-2-yl}amino)-1-methyl-6-oxo-1,6-dihydropyridin-3-yl]-5-fluoro-2-(hydroxymethyl)phenyl}-4,4-dimethyl-7-thia-10-azatricyclo[6.4.0.0^2,6]dodeca-1(8),2(6)-dien-9-one] | 0.001 | 
Cn1cc(-c2cc(F)cc(N3CCc4c(sc5c4CC(C)(C)C5)C3=O)c2CO)cc(Nc2ccc(C3CCN(C4COC4)CC3)cn2)c1=O [Example 299, 10-[5-Fluoro-2-(hydroxymethyl)-3-[1-methyl-5-({5-[1-(oxetan-3-yl)piperidin-4-yl]pyridine-2-yl}amino)-6-oxo-1,6-dihydropyridin-3-yl]phenyl]-4,4-dimethyl-7-thia-10-azatricyclo[6.4.0.0^2,6]dodeca-1(8),2(6)-dien-9-one] | 0.009 | 
COc1nccc(Nc2cc(-c3cc(F)cc(N4CCn5c(cc6c5CC(C)(C)C6)C4=O)c3CO)cn(C)c2=O)n1 [Example 300] | 0.009 | 
CCn1nc(Nc2cc(-c3cc(F)cc(N4CCn5c(cc6c5CC(C)(C)C6)C4=O)c3CO)cn(C)c2=O)cc1C [Example 302, 10-(3-{5-[(1-Ethyl-5-methyl-1H-pyrazol-3-yl)amino]-1-methyl-6-oxo-1,6-dihydropyridin-3-yl}-5-fluoro-2-(hydroxymethyl)phenyl)-4,4-dimethyl-1,10-diazatricyclo[6.4.0.0^2,6]dodeca-2(6),7-dien-9-one] |  | 0.0099
Cn1cc(-c2cc(F)cc(N3CCn4c(cc5c4CC(C)(C)C5)C3=O)c2CO)cc(Nc2ccc(N3CCN(C4COC4)CC3)cn2)c1=O [Example 304, 10-[5-Fluoro-2-(hydroxymethyl)-3-[1-methyl-5-({5-[4-(oxetan-3-yl)piperazin-1-yl]pyridine-2-yl}amino)-6-oxo-1,6-dihydropyridin-3-yl]phenyl]-4,4-dimethyl-1,10-diazatricyclo[6.4.0.0^2,6]dodeca-2(6),7-dien-9-one] |  | 0.0078
Cn1cc(-c2cccc(N3CCc4c(sc5c4CCCC5)C3=O)c2CO)nc(Nc2ccc(C3CCN(C4COC4)CC3)cc2)c1=O [Example 305, 5-[2-(Hydroxymethyl)-3-[4-methyl-6-({4-[1-(oxetan-3-yl)piperidin-4-yl]phenyl}amino)-5-oxo-4,5-dihydropyrazin-2-yl]phenyl]-8-thia-5-azatricyclo[7.4.0.0^2,7]trideca-1(9),2(7)-dien-6-one] |  | 0.0171
CN1CCN(c2ccc(Nc3cc(-c4cccc(N5CCn6c(cc7c6CCCC7)C5=O)c4CO)nn(C)c3=O)nc2)CC1 [Example 307, 2-(2-(Hydroxymethyl)-3-(1-methyl-5-(5-(4-methylpiperazin-1-yl)pyridin-2-ylamino)-6-oxo-1,6-dihydropyridazin-3-yl)phenyl)-3,4,6,7,8,9-hexahydropyrazino[1,2-a]indol-1(2H)-one] |  | 0.0071
Cn1cc(-c2cccc(N3CCc4c(cc5n4CCCC5)C3=O)c2CO)cc(Nc2cc3n(n2)CCOC3)c1=O [Example 309, 5-[2-(Hydroxymethyl)-3-{1-oxo-1H,2H,3H,4H,6H,7H,8H,9H-pyrido[3,4-b]indolizin-2-yl}phenyl]-1-methyl-3-{4H,6H,7H-pyrazolo[3,2-c][1,4]oxazin-2-ylamino}-1,2-dihydropyridin-2-one] |  | 0.0165
CCN1CCN(c2ccc(Nc3cc(-c4cccc(N5CCc6c(cc7n6CCCC7)C5=O)c4CO)cn(C)c3=O)nc2)CC1 [Example 310, 3-{[5-(4-Ethylpiperazin-1-yl)pyridine-2-yl]amino}-5-[2-(hydroxymethyl)-3-{1-oxo-1H,2H,3H,4H,6H,7H,8H,9H-pyrido[3,4-b]indolizin-2-yl}phenyl]-1-methyl-1,2-dihydropyridin-2-one] |  | 0.0166
